The values below come from patent US10792294B2, “Methods for enhancing mucosal innate immune responses to and/or detection of pathogens using human milk oligosaccharides” (ABBOTT LABORATORIES, priority 2014, dated 2020).

What all share (format): cell-based, human
The test system of one test is MUC2. As to the kind of experiment: qRT-PCR RNA expression of MUC2 gene in LS174T cells exposed to HMO. The following applies: 0.1 mg/mL, 48 hours.
The next test deals with CCR2. Description: qRT-PCR RNA expression of CCR2 gene in LS174T cells exposed to HMO. The following applies: 48 hours; for fold change in RNA expression of CCR2 relative to Control: normalized to GUSB, P<0.05. The protocol: (§1) The ability of HMOs to increase expression of mucosal innate immune receptors and cytokines was tested by exposing LS174T human colorectal cancer cells, which are a model of human intestinal goblet cells, to either of the HMOs, 2′-FL or LNnT. The LS174T cells were obtained from the American Type Culture Collection (ATCC). LS174T cells were maintained in minimum essential medium supplemented with 10% Fetalplex, 1.5 g/L of Na2CO3, 10 ml/L penicillin G-streptomycin solution at 37° C. in 5% CO2. Cells were plated at 0.2×10^5 cells/ml/well in 24-well plates and allowed to attach for 24-30 hours. Solutions containing each HMO were prepared by resuspending lyophilized HMO in cell culture grade water to a 10% solution and filter-sterilizing before diluting to the appropriate level in culture media. A solution free of carbohydrates (i.e., fresh medium alone, Control) was also prepared using the same procedure. After preparation of the HMO-containing solutions, the LS174T cell cultures were rinsed with 1×HBSS and then incubated in 0.5 ml of fresh medium alone (Control) or containing 0.1 mg/mL or 1 mg/mL of 2′-FL (2FL), LNnT (LNnT), fucose (FUCOSE), or lactose (LAC) for 48 hours. Cells were harvested at the end of incubation with 1 ml of TRIzol to obtain RNA samples. RNA expression levels of the genes for the mucosal innate immune receptor proteins TLR3, TLR4, CCR2 and the cytokine IL1B were determined by quantitative reverse transcriptase polymerase chain reaction (qRT-PCR) of RNA samples from the cells. Fold change (Fold induction) in the RNA expression levels of the genes for the receptor proteins and the cytokine was normalized based on the change in GUSB transcript expression. Reported fold changes are the mean+/−[…]. Treatments with statistically significant differences in fold expression (P<0.05) are reported with different letters above the bars.
In general terms: Quantitative PCR measures a nucleic acid by following its amplification.

For the next test, the system named is TLR3. As to the kind of experiment: qRT-PCR RNA expression of TLR3 gene in LS174T cells exposed to HMO. The following applies: 48 hours; for fold change in RNA expression of TLR3 relative to Control: normalized to GUSB, P<0.05. The protocol:
as §1

The next test concerns TLR4. Description: qRT-PCR RNA expression of TLR4 gene in LS174T cells exposed to HMO. The following applies: 48 hours; for fold change in RNA expression of TLR4 relative to Control: normalized to GUSB, P<0.05. The protocol: as §1
For a further test, the system named is IL1B. Description: qRT-PCR RNA expression of cytokine IL1B gene in LS174T cells exposed to HMO. The following applies: 1 mg/mL, 48 hours, normalized to GUSB, P<0.05. As to the method:
The ability of HMOs to increase expression of mucosal innate immune receptors and cytokines was tested by exposing LS174T human colorectal cancer cells, which are a model of human intestinal goblet cells, to either of the HMOs, 2′-FL or LNnT. The LS174T cells were obtained from the American Type Culture Collection (ATCC). LS174T cells were maintained in minimum essential medium supplemented with 10% Fetalplex, 1.5 g/L of Na2CO3, 10 ml/L penicillin G-streptomycin solution at 37° C. in 5% CO2. Cells were plated at 0.2×10^5 cells/ml/well in 24-well plates and allowed to attach for 24-30 hours. Solutions containing each HMO were prepared by resuspending lyophilized HMO in cell culture grade water to a 10% solution and filter-sterilizing before diluting to the appropriate level in culture media. A solution free of carbohydrates (i.e., fresh medium alone, Control) was also prepared using the same procedure. […] RNA expression levels of the genes for the mucosal innate immune receptor proteins TLR3, TLR4, CCR2 and the cytokine IL1B were determined by quantitative reverse transcriptase polymerase chain reaction (qRT-PCR) of RNA samples from the cells. […]

In the case of 2′-fucosyllactose [2′-FL], the MUC2 gene expression entry in the test on MUC2 is reported as “significant increase”. Moreover, the “increase in CCR2 expression, 0.1 mg/mL treatment compared with 1 mg/mL treatment” value in the test with CCR2 (0.1 mg/mL vs 1 mg/mL) is “greater increase in expression in response to the 0.1 mg/mL 2′-FL treatment than the 1 mg/mL 2′-FL treatment”. For the same compound, the “fold change in RNA expression of CCR2 relative to Control” value with CCR2 (0.1 mg/mL) and with CCR2 (1 mg/mL) was “statistically significant fold change” throughout. Further, in the test with TLR3 (0.1 mg/mL vs 1 mg/mL), the “increase in TLR3 expression, 0.1 mg/mL treatment compared with 1 mg/mL treatment” value is reported as “greater increase in expression in response to the 0.1 mg/mL 2′-FL treatment than the 1 mg/mL 2′-FL treatment”. Moreover, the “fold change in RNA expression of TLR3 relative to Control” value in the test with TLR3 (0.1 mg/mL) and in the test with TLR3 (1 mg/mL) was “statistically significant fold change” in each case. Besides, the “increase in TLR4 expression, 0.1 mg/mL treatment compared with 1 mg/mL treatment” value in the test with TLR4 (0.1 mg/mL vs 1 mg/mL) is listed as “greater increase in expression in response to the 0.1 mg/mL 2′-FL treatment than the 1 mg/mL 2′-FL treatment”. Also, the “fold change in RNA expression of TLR4 relative to Control” value in the test on TLR4 (0.1 mg/mL) and in the test on TLR4 (1 mg/mL) was “statistically significant fold change” each time. Besides, in the test with IL1B, the “fold change in RNA expression of IL1B relative to Control” value is listed as “statistically significant fold change”.

With `CC(=O)N[C@H]1[C@H](O[C@H]2[C@@H](O)[C@@H](CO)O[C@@H](O[C@H]3[C@H](O)[C@@H](O)C(O)O[C@@H]3CO)[C@@H]2O)O[C@H](CO)[C@@H](O[C@@H]2O[C@H](CO)[C@H](O)[C@H](O)[C@H]2O)[C@@H]1O` (mixture of isomers) [LNnT, lacto-N-neotetraose], the “fold change in RNA expression of CCR2 relative to Control” value with CCR2 (0.1 mg/mL) is “significantly enhanced”; in the test on CCR2 (1 mg/mL) it was “significant change in expression”. Also, in the test with TLR3 (1 mg/mL), the “fold change in RNA expression of TLR3 relative to Control” value is recorded as “significant change in expression”. In addition, in the test with TLR4 (1 mg/mL), the “fold change in RNA expression of TLR4 relative to Control” value was “significant change in expression”. In addition, the “fold change in RNA expression of IL1B relative to Control” value in the test with IL1B is listed as “significant change in expression”.
